In brackets after ≈: the same amount, converted by molar mass.
Columns and labels:
[1] = molecular target: Transient receptor potential cation channel subfamily V member 1 (Homo sapiens, UniProt Q8NER1); experiment: Inhibition of calcium influx evoked by capsaicin in human TRPV1 expressing cells by fluorescence assay; type: functional
[2] = Plasma concentration in rat at 10 mg/kg, po after 1.5 hrs; type: ADME, organism-based; design: dose 10 mg/kg, route oral; conditions: Wistar Han
[3] = Tmax in rat brain at 3 mg/kg, po; type: ADME, organism-based; design: dose 3 mg/kg, route oral; conditions: Wistar Han
[4] = system: Rattus norvegicus; experiment: Concentration in rat brain at 3 mg/kg, po after 0.5 hrs; type: ADME, organism-based, Wistar Han; design: dose 3 mg/kg, route oral; conditions: in vivo
[5] = molecular target: Transient receptor potential cation channel subfamily V member 1 (Rattus norvegicus, UniProt O35433); experiment: Inhibition of low pH activation of rat TRPV1; type: functional
[6] = Plasma concentration in rat at 1 mg/kg, iv after 6 hrs; type: ADME, organism-based; design: dose 1 mg/kg, route intravenous; conditions: Wistar Han
[7] = system: Rattus norvegicus; experiment: Cmax in rat brain at 1 mg/kg, iv; type: ADME, organism-based, Wistar Han; design: dose 1 mg/kg, route intravenous; conditions: in vivo
[8] = Terminal half life in rat at 3 mg/kg, po; type: ADME, organism-based; design: dose 3 mg/kg, route oral; conditions: Wistar Han, in vivo, read-out: beta t1/2 (converted)
[9] = system: Rattus norvegicus; experiment: Concentration in rat brain at 1 mg/kg, iv after 0.5 hrs; type: ADME, organism-based, Wistar Han; design: dose 1 mg/kg, route intravenous; conditions: in vivo
[10] = Plasma concentration in rat at 1 mg/kg, iv after 0.033 hrs; type: ADME, organism-based; design: dose 1 mg/kg, route intravenous; conditions: Wistar Han
[11] = Plasma concentration in rat at 10 mg/kg, po after 4 hrs; type: ADME, organism-based; design: dose 10 mg/kg, route oral; conditions: Wistar Han
[12] = Plasma concentration in rat at 3 mg/kg, po after 18 hrs; type: ADME, organism-based; design: dose 3 mg/kg, route oral; conditions: Wistar Han
[13] = system: Rattus norvegicus; experiment: Concentration in rat brain at 1 mg/kg, iv after 0.083 hrs; type: ADME, organism-based, Wistar Han; design: dose 1 mg/kg, route intravenous; conditions: in vivo
[14] = system: Rattus norvegicus; experiment: Concentration in rat brain at 10 mg/kg, po after 4 hrs; type: ADME, organism-based, Wistar Han; design: dose 10 mg/kg, route oral; conditions: in vivo
[15] = system: Rattus norvegicus; experiment: Concentration in rat brain at 1 mg/kg, iv after 1.5 hrs; type: ADME, organism-based, Wistar Han; design: dose 1 mg/kg, route intravenous; conditions: in vivo
[16] = Plasma concentration in rat at 1 mg/kg, iv after 0.083 hrs; type: ADME, organism-based; design: dose 1 mg/kg, route intravenous; conditions: Wistar Han
[17] = Plasma concentration in rat at 1 mg/kg, iv after 4 hrs; type: ADME, organism-based; design: dose 1 mg/kg, route intravenous; conditions: Wistar Han
[18] = Clearance in rat at 1 mg/kg, iv; type: ADME, organism-based; design: dose 1 mg/kg, route intravenous; conditions: Wistar Han, in vivo
[19] = system: Rattus norvegicus; experiment: Concentration in rat brain at 10 mg/kg, po after 2 hrs; type: ADME, organism-based, Wistar Han; design: dose 10 mg/kg, route oral; conditions: in vivo
[20] = Plasma concentration in rat at 10 mg/kg, po after 24 hrs; type: ADME, organism-based; design: dose 10 mg/kg, route oral; conditions: Wistar Han
[21] = Plasma concentration in rat at 10 mg/kg, po after 0.16 hrs; type: ADME, organism-based; design: dose 10 mg/kg, route oral; conditions: Wistar Han
[22] = system: Rattus norvegicus; experiment: Concentration in rat brain at 3 mg/kg, po after 1.5 hrs; type: ADME, organism-based, Wistar Han; design: dose 3 mg/kg, route oral; conditions: in vivo
[23] = system: Rattus norvegicus; experiment: Concentration in rat brain at 10 mg/kg, po after 6 hrs; type: ADME, organism-based, Wistar Han; design: dose 10 mg/kg, route oral; conditions: in vivo
[24] = Tmax in rat plasma at 3 mg/kg, po; type: ADME, organism-based; design: dose 3 mg/kg, route oral; conditions: Wistar Han
[25] = Plasma concentration in rat at 3 mg/kg, po after 2 hrs; type: ADME, organism-based; design: dose 3 mg/kg, route oral; conditions: Wistar Han
[26] = system: Rattus norvegicus; experiment: Concentration in rat brain at 1 mg/kg, iv after 2 hrs; type: ADME, organism-based, Wistar Han; design: dose 1 mg/kg, route intravenous; conditions: in vivo
[27] = system: Rattus norvegicus; experiment: Concentration in rat brain at 3 mg/kg, po after 18 hrs; type: ADME, organism-based, Wistar Han; design: dose 3 mg/kg, route oral; conditions: in vivo
[28] = molecular target: Transient receptor potential cation channel subfamily V member 1 (Rattus norvegicus) (UniProt O35433); experiment: Effect on capsaicin induced mechanical hyperalgesia in rat; type: functional
[29] = Plasma concentration in rat at 3 mg/kg, po after 0.16 hrs; type: ADME, organism-based; design: dose 3 mg/kg, route oral; conditions: Wistar Han
[30] = Plasma concentration in rat at 3 mg/kg, po after 24 hrs; type: ADME, organism-based; design: dose 3 mg/kg, route oral; conditions: Wistar Han
[31] = Plasma concentration in rat at 1 mg/kg, iv after 1 hrs; type: ADME, organism-based; design: dose 1 mg/kg, route intravenous; conditions: Wistar Han
[32] = system: Rattus norvegicus; experiment: Concentration in rat brain at 10 mg/kg, po after 24 hrs; type: ADME, organism-based, Wistar Han; design: dose 10 mg/kg, route oral; conditions: in vivo
[33] = Aqueous solubility at pH 6.8 and 25 degC; type: physicochemical; conditions: aqueous medium
[34] = system: Rattus norvegicus; experiment: Concentration in rat brain at 1 mg/kg, iv after 6 hrs; type: ADME, organism-based, Wistar Han; design: dose 1 mg/kg, route intravenous; conditions: in vivo
[35] = Terminal half life in rat at 1 mg/kg, iv; type: ADME, organism-based; design: dose 1 mg/kg, route intravenous; conditions: Wistar Han, in vivo, read-out: beta t1/2 (converted)
[36] = system: Rattus norvegicus; experiment: Concentration in rat brain at 10 mg/kg, po after 9 hrs; type: ADME, organism-based, Wistar Han; design: dose 10 mg/kg, route oral; conditions: in vivo
[37] = system: Rattus norvegicus; experiment: Concentration in rat brain at 3 mg/kg, po after 1 hrs; type: ADME, organism-based, Wistar Han; design: dose 3 mg/kg, route oral; conditions: in vivo
[38] = Plasma concentration in rat at 1 mg/kg, iv after 0.16 hrs; type: ADME, organism-based; design: dose 1 mg/kg, route intravenous; conditions: Wistar Han

Sequence of Transient receptor potential cation channel subfamily V member 1 (Homo sapiens, UniProt Q8NER1) (Q8NER1 whole entry): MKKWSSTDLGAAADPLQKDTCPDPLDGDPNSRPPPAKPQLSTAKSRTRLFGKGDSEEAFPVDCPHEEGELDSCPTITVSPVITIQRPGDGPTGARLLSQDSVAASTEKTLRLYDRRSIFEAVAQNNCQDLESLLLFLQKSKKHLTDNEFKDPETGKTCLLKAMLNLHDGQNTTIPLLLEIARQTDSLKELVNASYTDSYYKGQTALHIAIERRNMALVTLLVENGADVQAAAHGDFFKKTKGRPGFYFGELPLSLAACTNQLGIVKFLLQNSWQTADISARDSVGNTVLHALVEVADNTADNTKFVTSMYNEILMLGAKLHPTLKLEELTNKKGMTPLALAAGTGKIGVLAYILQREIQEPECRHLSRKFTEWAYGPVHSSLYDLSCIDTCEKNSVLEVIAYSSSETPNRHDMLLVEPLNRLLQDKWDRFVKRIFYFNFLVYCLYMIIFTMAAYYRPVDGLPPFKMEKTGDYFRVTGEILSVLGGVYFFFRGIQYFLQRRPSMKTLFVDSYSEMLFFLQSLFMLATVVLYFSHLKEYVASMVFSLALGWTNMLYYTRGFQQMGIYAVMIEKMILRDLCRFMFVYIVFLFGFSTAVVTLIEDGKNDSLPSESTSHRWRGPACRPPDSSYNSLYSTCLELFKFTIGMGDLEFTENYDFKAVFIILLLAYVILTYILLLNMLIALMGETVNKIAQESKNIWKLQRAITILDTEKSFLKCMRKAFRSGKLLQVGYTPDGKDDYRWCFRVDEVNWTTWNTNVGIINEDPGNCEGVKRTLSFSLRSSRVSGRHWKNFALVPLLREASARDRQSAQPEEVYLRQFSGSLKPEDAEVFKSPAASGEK
Sequence of Transient receptor potential cation channel subfamily V member 1 (Rattus norvegicus) (O35433 whole entry): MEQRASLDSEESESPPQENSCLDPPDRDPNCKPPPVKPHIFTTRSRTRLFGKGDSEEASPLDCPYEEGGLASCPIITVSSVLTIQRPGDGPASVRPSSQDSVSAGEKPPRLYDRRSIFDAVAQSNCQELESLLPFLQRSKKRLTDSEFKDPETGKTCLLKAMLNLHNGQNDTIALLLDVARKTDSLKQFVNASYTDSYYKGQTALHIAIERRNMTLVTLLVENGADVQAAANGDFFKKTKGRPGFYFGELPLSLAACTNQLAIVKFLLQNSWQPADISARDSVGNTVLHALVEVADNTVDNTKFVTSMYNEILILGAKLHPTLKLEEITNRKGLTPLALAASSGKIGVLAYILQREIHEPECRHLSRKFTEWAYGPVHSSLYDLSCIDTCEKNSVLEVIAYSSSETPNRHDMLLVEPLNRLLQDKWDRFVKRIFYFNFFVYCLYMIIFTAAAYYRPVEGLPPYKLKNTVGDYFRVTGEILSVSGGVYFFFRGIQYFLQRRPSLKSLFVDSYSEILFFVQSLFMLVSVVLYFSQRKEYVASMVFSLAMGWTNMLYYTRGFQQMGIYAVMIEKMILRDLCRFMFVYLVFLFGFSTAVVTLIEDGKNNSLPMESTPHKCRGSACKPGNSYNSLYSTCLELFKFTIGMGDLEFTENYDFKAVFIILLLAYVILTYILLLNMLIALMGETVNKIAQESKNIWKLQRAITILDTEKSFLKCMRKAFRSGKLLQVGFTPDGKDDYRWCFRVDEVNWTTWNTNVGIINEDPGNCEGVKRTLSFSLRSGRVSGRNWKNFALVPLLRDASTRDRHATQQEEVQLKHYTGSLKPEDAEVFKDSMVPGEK
Sequence of Transient receptor potential cation channel subfamily V member 1 (Rattus norvegicus, UniProt O35433) (O35433 whole entry): as above

Cc1nc2cc(C(C)C)c(-c3ccc(Cl)c(OCC4CC4)c3)cc2c(=O)[nH]1
IC50 [1]: 50 nM
concentration at 1.5 h [2]: 3.72 µM
Tmax [3]: 4 h
Ct [4]: 211 pmol/g
IC50 [5]: 105 nM
concentration at 6 h [6]: 488 nM
Cmax [7]: 1079 pmol/g
half-life [8]: 210 min
Ct [9]: 1079 pmol/g
concentration at 0.033 h [10]: 3.54 µM
concentration at 4 h [11]: 5.97 µM
concentration at 18 h [12]: 90 nM
Ct [13]: 960 pmol/g
Ct [14]: 1515 pmol/g
Ct [15]: 351 pmol/g
concentration at 0.083 h [16]: 2650 nM
concentration at 4 h [17]: 726 nM
clearance [18]: 5.25 mL/min/kg
Ct [19]: 1424 pmol/g
concentration at 24 h [20]: 106 nM
concentration at 0.16 h [21]: 71 nM
Ct [22]: 951 pmol/g
Ct [23]: 1042 pmol/g
Tmax [24]: 4 h
concentration at 2 h [25]: 1420 nM
Ct [26]: 449 pmol/g
Ct [27]: < 125 pmol/g
Activity [28]: Dose-dependent effect
concentration at 0.16 h [29]: 60 nM
concentration at 24 h [30]: 53 nM
concentration at 1 h [31]: 1330 nM
Ct [32]: < 25 pmol/g
solubility [33]: 0.8 µg/mL (≈ 2.09 µM)
Ct [34]: 205 pmol/g
half-life [35]: 209 min
Ct [36]: 811 pmol/g
Ct [37]: 641 pmol/g
concentration at 0.16 h [38]: 2200 nM
